The first experiment addresses T1, human LPA1 (Homo sapiens, UniProt Q92633).
T1 construct: expressed in transfected cells; host or cells: Chinese hamster ovary (CHO) cells
Briefly: LPA1 functional antagonist assay (calcium flux). It is filed as cell-based. To be noted: CHO cells overexpressing human LPA1; calcium flux induced by 10 nM LPA; read-out: hLPA1 IC50. As for the experimental part:
The effectiveness of compounds of the present invention as LPA1 inhibitors can be determined in an LPA1 functional antagonist assay as follows:
The cells were then equilibrated to room temperature for 30 minutes before the assay. […] IC50 values were determined by fitting data to a 4-parameter logistic equation (GraphPad Prism, San Diego Calif.).
T1 sequence (Q92633 whole entry): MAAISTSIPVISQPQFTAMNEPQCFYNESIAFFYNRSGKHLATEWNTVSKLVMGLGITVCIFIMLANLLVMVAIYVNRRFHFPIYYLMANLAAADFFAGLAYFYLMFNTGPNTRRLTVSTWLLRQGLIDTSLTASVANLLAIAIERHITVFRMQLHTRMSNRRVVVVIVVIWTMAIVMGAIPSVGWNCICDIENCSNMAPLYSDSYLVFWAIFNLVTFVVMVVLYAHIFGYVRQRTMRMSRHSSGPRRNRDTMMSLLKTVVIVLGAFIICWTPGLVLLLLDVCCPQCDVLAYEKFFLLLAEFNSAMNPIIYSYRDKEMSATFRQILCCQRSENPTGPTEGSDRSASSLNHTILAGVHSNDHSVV
As to `CCCCCOC(=O)Nc1c(-c2ccc(O[C@H]3CCC[C@H](C(=O)O)C3)c(C)n2)nnn1C` [Example 71, (1S,3S)-3-((2-methyl-6-(1-methyl-5-(((pentyloxy)carbonyl)amino)-1H-1,2,3-triazol-4-yl)pyridin-3-yl)oxy)cyclohexane-1-carboxylic acid], the IC50 is 6 nM.

For `CCCOC(=O)NCc1c(-c2ccc(O[C@H]3CCC[C@H](C(=O)O)C3)c(C)n2)nnn1C` [Example 24, (1S,3S)-3-((2-methyl-6-(1-methyl-5-(((propoxycarbonyl)amino)methyl)-1H-1,2,3-triazol-4-yl)pyridin-3-yl)oxy)cyclohexane-1-carboxylic acid], the IC50 worked out at 160 nM.

In the case of `Cc1nc(-c2nnn(C)c2CCNC(=O)Cc2ccccc2)ccc1O[C@H]1CCC[C@H](C(=O)O)C1` [Example 238, (1S,3S)-3-((2-methyl-6-(1-methyl-5-(2-(2-phenylacetamido)ethyl)-1H-1,2,3-triazol-4-yl)pyridin-3-yl)oxy)cyclohexane-1-carboxylic acid], the IC50 was found to be 138 nM.

For `Cc1nc(-c2nnn(C)c2NC(=O)OCC(C)F)ccc1O[C@H]1CCC[C@H](C(=O)O)C1` (stereo partly drawn) [Example 143, (1S,3S)-3-((6-(5-(((2-fluoropropoxy)carbonyl)amino)-1-methyl-1H-1,2,3-triazol-4-yl)-2-methylpyridin-3-yl)oxy)cyclohexane-1-carboxylic acid], the IC50 came to 478 nM.

Turning to `CCCOC(=O)NCc1c(-c2ccc(O[C@H]3CCC[C@H](C(=O)O)C3)c(C(F)F)n2)nnn1C` [Example 101, (1S,3S)-3-((2-(difluoromethyl)-6-(1-methyl-5-(((propoxycarbonyl)amino)methyl)-1H-1,2,3-triazol-4-yl)pyridin-3-yl)oxy)cyclohexane-1-carboxylic acid], the IC50 was 2030 nM.

Regarding `Cn1nnc(-c2ccc(O[C@H]3CCC[C@H](C(=O)O)C3)cn2)c1CNC(=O)OCC1CC(F)C1` (mixture of isomers) [Example 47, (1S,3S)-3-((6-(5-(((((3-fluorocyclobutyl)methoxy)carbonyl)amino)methyl)-1-methyl-1H-1,2,3-triazol-4-yl)pyridin-3-yl)oxy)cyclohexane-1-carboxylic acid], the IC50 turned out to be 854 nM.

On to `Cn1nnc(-c2ccc(O[C@H]3CCC[C@H](C(=O)O)C3)cn2)c1CNC(=O)OC1CCCC1` [Example 6, (1S,3S)-3-((6-(5-((((cyclopentyloxy)carbonyl)amino)methyl)-1-methyl-1H-1,2,3-triazol-4-yl)pyridin-3-yl)oxy)cyclohexane-1-carboxylic acid], for which the IC50 was 84 nM.

For `CCc1nc(-c2nnn(C)c2CNC(=O)OCC(C)C)ccc1O[C@H]1CCC[C@H](C(=O)O)C1` [Example 46, (1S,3S)-3-((2-ethyl-6-(5-(((isobutoxycarbonyl)amino)methyl)-1-methyl-1H-1,2,3-triazol-4-yl)pyridin-3-yl)oxy)cyclohexane-1-carboxylic acid], the IC50 turned out to be 120 nM.

For the compound `CCCCCOC(=O)NCc1c(-c2ccc(O[C@H]3CCC[C@H](C(=O)O)C3)c(C)n2)nnn1C` [Example 23], the IC50 turned out to be 3 nM.

As to `Cn1nnc(-c2ccc(O[C@H]3CCC[C@H](C(=O)O)C3)cn2)c1NC(=O)OCCC1CC1` [Example 84, (1S,3S)-3-((6-(5-(((2-cyclopropyl-ethoxy)carbonyl)amino)-1-methyl-1H-1,2,3-triazol-4-yl)pyridin-3-yl)oxy)cyclohexane-1-carboxylic acid], the IC50 is 38 nM.

For the compound `CCCCN(C)S(=O)(=O)NCc1c(-c2ccc(O[C@H]3CCC[C@H](C(=O)O)C3)c(C)n2)nnn1C` [Example 138, (1S,3S)-3-((6-(5-(((N-butyl-N-methylsulfamoyl)amino)methyl)-1-methyl-1H-1,2,3-triazol-4-yl)-2-methylpyridin-3-yl)oxy)cyclohexane-1-carboxylic acid], the IC50 was found to be 449 nM.

In the case of `Cc1nc(-c2nnn(C)c2CNC(=O)OCc2ccccc2)ccc1O[C@@H]1CCC[C@@](F)(C(=O)O)C1` (single isomer, unassigned) [Example 210], the IC50 came out at 5 nM.

For `CCCCCCOC(=O)NCc1c(-c2ccc(O[C@H]3CCC[C@H](C(=O)O)C3)c(C)n2)nnn1C` [Example 20, (1S,3S)-3-((6-(5-((((hexyloxy)carbonyl)amino)methyl)-1-methyl-1H-1,2,3-triazol-4-yl)-2-methyl-pyridin-3-yl)oxy)cyclohexane-1-carboxylic acid], the IC50 is 3 nM.

Regarding `Cc1nc(-c2nnn(C)c2CCNC(=O)CCC(C)C)ccc1O[C@H]1CCC[C@H](C(=O)O)C1` [Example 240], the IC50 amounted to 1010 nM.

Take `Cc1nc(-c2nnn(C)c2NC(=O)N[C@H](C)C2CC2)ccc1O[C@H]1CCC[C@H](C(=O)O)C1` [Example 146, (1S,3S)-3-((6-(5-(3-((R)-1-cyclopropylethyl)ureido)-1-methyl-1H-1,2,3-triazol-4-yl)-2-methylpyridin-3-yl)oxy)cyclohexane-1-carboxylic acid]: the IC50 stood at 306 nM.

Consider `Cc1nc(-c2nnn(C)c2NC(=O)OCC(C)C)c(F)cc1O[C@H]1CCC[C@H](C(=O)O)C1` [Example 219, (1S,3S)-3-((5-fluoro-6-(5-((isobutoxycarbonyl)amino)-1-methyl-1H-1,2,3-triazol-4-yl)-2-methylpyridin-3-yl)oxy)cyclohexane-1-carboxylic acid], for which the IC50 was 152 nM.

On to `Cc1nc(-c2nnn(C)c2CNC(=O)C(C)(C)Oc2ccccc2)ccc1O[C@H]1CCC[C@H](C(=O)O)C1` [Example 234, (1S,3S)-3-((2-methyl-6-(1-methyl-5-((2-methyl-2-phenoxypropanamido)methyl)-1H-1,2,3-triazol-4-yl)pyridin-3-yl)oxy)cyclohexane-1-carboxylic acid], for which the half-inhibitory concentration (IC50) came to 392 nM.

As for `CC(C)CCOC(=O)Nc1c(-c2ccc(O[C@H]3CCC[C@H](C(=O)O)C3)cn2)nnn1C` [Example 85, (1S,3S)-3-((6-(5-(((isopentyloxy)carbonyl)amino)-1-methyl-1H-1,2,3-triazol-4-yl)pyridin-3-yl)oxy)cyclohexane-1-carboxylic acid], the IC50 stood at 115 nM.

In the case of `Cc1nc(-c2nnn(C)c2CNC(=O)OCc2cc(F)ccc2F)ccc1O[C@H]1CCC[C@H](C(=O)O)C1` [Example 17, (1S,3S)-3-((6-(5-(((((2,5-difluorobenzyl)oxy)carbonyl)amino)methyl)-1-methyl-1H-1,2,3-triazol-4-yl)-2-methylpyridin-3-yl)oxy)cyclohexane-1-carboxylic acid], the IC50 is 7 nM.

The experiment is the same for the next values; noted with them: human LPA1 functional antagonist assay; read-out: hLPA1 IC50.
For `Cc1nc(-c2nnn(C)c2CNC(=O)O[C@H](C)C(C)C)ccc1O[C@H]1CCC[C@H](C(=O)O)C1` [Example 170, (1S,3S)-3-((2-methyl-6-(1-methyl-5-((((((R)-3-methylbutan-2-yl)oxy)carbonyl)amino)methyl)-1H-1,2,3-triazol-4-yl)pyridin-3-yl)oxy)cyclohexane-1-carboxylic acid], the IC50 worked out at 92 nM.

As to `Cc1nc(-c2nnn(C)c2CNC(=O)OC2CC(F)(F)C2)ccc1O[C@H]1CCC[C@H](C(=O)O)C1` [Example 178, (1S,3S)-3-((6-(5-((((3,3-difluoro-cyclobutoxy)carbonyl)amino)methyl)-1-methyl-1H-1,2,3-triazol-4-yl)-2-methylpyridin-3-yl)oxy)cyclo-hexane-1-carboxylic acid], the IC50 is 102 nM.

(Values after patent US11697646B2, “Triazole N-linked carbamoyl cyclohexyl acids as LPA antagonists” (BRISTOL-MYERS SQUIBB COMPANY, priority 2017, dated 2023).)
